Earlier results on 2 compounds are cited in patent US5891889A, “Inhibitors of farnesyl-protein transferase” (Merck & Co., Inc., priority 1997, dated 1999).

In the data set the test system is farnesyl-protein transferase. The following applies: via inhibition of HMG-CoA reductase; literature.

Regarding `CC[C@H](C)C(=O)O[C@H]1CCC=C2C=C[C@H](C)[C@H](CC[C@@H]3C[C@@H](O)CC(=O)O3)[C@H]21` [compactin], the “Indirect inhibition of farnesyl-protein transferase in vivo” value is “Indirect inhibition of farnesyl-protein transferase in vivo has been demonstrated”. As for `CC[C@H](C)C(=O)O[C@H]1C[C@@H](C)C=C2C=C[C@H](C)[C@H](CC[C@@H]3C[C@@H](O)CC(=O)O3)[C@H]21` [lovastatin], the “Indirect inhibition of farnesyl-protein transferase in vivo” value is given as “Indirect inhibition of farnesyl-protein transferase in vivo has been demonstrated”.
